US20080206356A1, “Pharmaceutical Compositions for the Treatment of Neurodegenerative Disorders” (UNIVERSIDAD DE BARCELONA, priority 2005, published 2008)

How the values were obtained:
GSK3-β [1] = molecular target: T1, GSK3-β (Homo sapiens, UniProt P49841); test: Ser-9 phosphorylation of GSK3-β in SH-SY5Y neuroblastoma cells (Western blot); format: cell-based; conditions: 1 mM sodium tungstate, 10 minutes, vs vehicle, FIG. 1A
T1 construct: endogenous in cells; host or cells: SH-SY5Y human neuroblastoma cells (ECACC 94030304)
Protocol: (§1) In FIG. 1 the effect of tungstate (W) on GSK3-β and tau phosphorylation on SH-SY5Y neuroblastoma cells is shown. The data correspond to the mean values and the error bars represent the standard deviation of three independent experiments. A) SH-SY5Y neuroblastoma cells were incubated for 10 minutes in the presence (+) or absence (−) of 1 mM sodium tungstate and their protein extracts were then probed by Western blot with an antibody that recognizes GSK3-β phosphorylated at Ser-9 and total GSK3-β. GSK3-β phosphorylation on Ser-9 causes its inactivation (D. A: Cross et al., Nature, vol. 378, pp. 785-789). […] B) SH-SY5Y cells were incubated with increasing concentrations of tungstate and the degree of tau phosphorylation was determined by Western blot with the tau-1 antibody, which recognizes tau when the serines 198, 199 or 202 are in unphosphorylated form. […] C) SH-SY5Y cells were incubated for 10 minutes in the presence (+) or absence (−) of 1 mM sodium tungstate (W) and the degree of tau phosphorylation was determined by Western blot with the AT180 antibody, which recognizes tau when threonine 231 is in phosphorylated form. […] The total amount of tau protein was determined using the 7.51 antibody.
(§2) The analysis of the degree of the phosphorylation of tau and GSK3 was performed by Western blot with the antibodies mentioned above. […]

tau [2] = test: tau phosphorylation in SH-SY5Y neuroblastoma cells (Western blot, tau-1 and AT-180 antibodies); format: cell-based, Human
Protocol: as §1, §2

GSK3 [3] = molecular target: T2, GSK3 (Rattus norvegicus, UniProt P18266); test: phosphorylation of GSK3 in brains of healthy Wistar rats intracranially injected with tungstate; format: in vivo; conditions: intracranial 0.1 mM tungstate vs saline, FIG. 2A
T2 construct: Western blot analysis of Ser-9 phosphorylation of GSK3 in rat brain extracts; from tissue; host or cells: rat brain (Wistar rats: healthy or STZ-diabetic)
Protocol: (§3) In FIG. 2 the effect of tungstate (W) on the phosphorylation of tau in brains from healthy and insulin-resistant rats is shown. A) Western blot analysis of the phosphorylation of GSK3 (left) and tau (right) from brain extracts of healthy rats intracranially injected with saline (−) or 0.1 mM tungstate (+). Phosphorylation was measured with antibodies against Ser-9 phosphorylated GSK3-β (pS9), and tau phosphorylated at threonine 231 (AT180) or unphosphorylated at serines 198, 199 and 202 (tau-1). The total amount of GSK3 and tau was determined through the interaction with antibodies raised against GSK3 and against tau (7.51), respectively. […] Phosphorylation was measured using the antibody that reacts with Ser-9 phosphorylated GSK3-β (pS9-GSK3-β) or with the tau-1 and AT180 antibodies. The total amounts of GSK3 and tau were determined as in A. C) Insulin-resistant rats were injected intracranially with saline (−) or 0.1 mM tungstate (+), their brains were then isolated and homogenised, and Western blots of the brain proteins were performed with the tau-1, and AT180 antibodies. The total amount of tau protein was determined using the 7.51 antibody. […]
(§4) The analysis of the degree of the phosphorylation of tau and GSK3 was performed by Western blot with the antibodies mentioned above. […] The protein concentration was determined using the BCA protein assay (Pierce, Rockford, Ill.). […]

tau [4] = test: phosphorylation of tau in brains of healthy Wistar rats intracranially injected with tungstate; format: in vivo, rat; conditions: intracranial 0.1 mM tungstate vs saline, FIG. 2A
Protocol: as §3, §4

tau [5] = test: phosphorylation of tau in brains of insulin-resistant (high fat diet) rats injected intraventricularly with tungstate; format: in vivo, rat; conditions: 5 μl of 110 nM sodium tungstate intraventricularly (FIG. 2 legend: 0.1 mM), 24 hours, cortex, FIG. 2C, dihydrate
Protocol: In FIG. 2 the effect of tungstate (W) on the phosphorylation of tau in brains from healthy and insulin-resistant rats is shown. A) Western blot analysis of the phosphorylation of GSK3 (left) and tau (right) from brain extracts of healthy rats intracranially injected with saline (−) or 0.1 mM tungstate (+). Phosphorylation was measured with antibodies against Ser-9 phosphorylated GSK3-β (pS9), and tau phosphorylated at threonine 231 (AT180) or unphosphorylated at serines 198, 199 and 202 (tau-1). The total amount of GSK3 and tau was determined through the interaction with antibodies raised against GSK3 and against tau (7.51), respectively. B) Western blot analysis of the phosphorylation in brain of GSK3-β (left) and tau (right) in control (Ctrl) and insulin-resistant (IR) rats. Phosphorylation was measured using the antibody that reacts with Ser-9 phosphorylated GSK3-β (pS9-GSK3-β) or with the tau-1 and AT180 antibodies. The total amounts of GSK3 and tau were determined as in A. C) Insulin-resistant rats were injected intracranially with saline (−) or 0.1 mM tungstate (+), their brains were then isolated and homogenised, and Western blots of the brain proteins were performed with the tau-1, and AT180 antibodies. The total amount of tau protein was determined using the 7.51 antibody. A decrease in the interaction with AT180 and an increase for that of tau-1 were observed
The analysis of the degree of the phosphorylation of tau and GSK3 was performed by Western blot with the antibodies mentioned above. Cells were homogenized at 4° C. in 50 mM 4-(2-hydroxyethyl)piperazine-1-ethanesulfonic acid (HEPES), pH 7.4, 10 mM ethylenediaminetetraacetic acid (EDTA), 0.1% 4-(1,1,3,3-tetramethylbutyl)phenyl-polyethylene glycol (triton X-100), 20 mM NaF, 0.1 mM sodium orthovanadate, 1 mM phenylmethanesulphonylfluoride, 10 μg/ml Isovaleryl-Val-Val-4-amino-3-hydroxy-6-methylheptanoyl-Ala-4-amino-3-hydroxy-6-methylheptanoic Acid (Pepstatin A); and 10 μg/ml aprotinin. The cell lysates were centrifuged at 10,000 g for 30 min at 4° C. and then heated at 100° C. for 5 min in electrophoresis sample buffer. The protein concentration was determined using the BCA protein assay (Pierce, Rockford, Ill.). Proteins were fractionated by sodium dodecylsulfate-polyacrylamide gel electrophoresis (SDS-PAGE) on 10% gels and transferred to nitrocellulose membranes (Schleicher & Schuell Bioscience, Dassel, Germany). After blocking non-specific protein binding to the membranes with 0.05% polyethylene glycol sorbitan monolaurate (Tween 20) and 5% non-fat dry milk in phosphate buffered saline (PBS), the membranes were incubated overnight with the primary antibodies in blocking buffer at 4° C. […]

GSK3 [6] = molecular target: T2, GSK3; test: Ser-9 phosphorylation of GSK3 in brain of healthy rats intraperitoneally injected with tungstate; format: in vivo; conditions: tungstate 50 mg/kg intraperitoneally vs saline, FIG. 3A
Protocol: (§5) In FIG. 3 the effect of tungstate (W) on the phosphorylation of tau from brains obtained from STZ-diabetic rats is shown. A) Western blot analysis of Ser-9 phosphorylation of GSK3 in rat brain extracts from control healthy rats intraperitoneally injected with saline (Ctrl) or tungstate (W) (50 mg/kg). […] B) as in A), STZ-diabetic rats intraperitoneally injected with 50 or 75 mg/kg of tungstate. C) Western blot analysis of the phosphorylation of tau at the site recognized by the tau-1 antibody in brain extracts from control healthy rats intraperitoneally injected with saline (Ctrl) or tungstate (W) (50 mg/kg). […] D) as in C), STZ-diabetic rats intraperitoneally injected with 50 or 75 mg/kg of tungstate. The data correspond to mean values and the error bars represent the standard deviation of three to five independent experiments.
as §4

tau [7] = test: tau phosphorylation (tau-1 site) in brain of healthy rats intraperitoneally injected with tungstate; format: in vivo, rat; conditions: tungstate 50 mg/kg intraperitoneally vs saline, FIG. 3C
Protocol: as §5, §4

GSK3-β [8] = molecular target: T3, GSK3-β (Rattus norvegicus, UniProt P18266); test: Ser-9 phosphorylation of GSK3-β in brain of STZ-diabetic rats intraperitoneally injected with tungstate; format: in vivo; conditions: tungstate 50 or 75 mg/kg intraperitoneally, FIG. 3B
T3 construct: Western blot analysis of Ser-9 phosphorylation of GSK3 in rat brain extracts; from tissue; host or cells: rat brain (Wistar rats: healthy or STZ-diabetic)
Protocol: as §5, §4

tau [9] = test: tau phosphorylation (tau-1 site) in brain of STZ-diabetic rats intraperitoneally injected with tungstate; format: in vivo, rat; conditions: tungstate 50 or 75 mg/kg intraperitoneally, FIG. 3D
Protocol: as §5, §4

[10] = cited from earlier work

T2 sequence (P18266 whole entry): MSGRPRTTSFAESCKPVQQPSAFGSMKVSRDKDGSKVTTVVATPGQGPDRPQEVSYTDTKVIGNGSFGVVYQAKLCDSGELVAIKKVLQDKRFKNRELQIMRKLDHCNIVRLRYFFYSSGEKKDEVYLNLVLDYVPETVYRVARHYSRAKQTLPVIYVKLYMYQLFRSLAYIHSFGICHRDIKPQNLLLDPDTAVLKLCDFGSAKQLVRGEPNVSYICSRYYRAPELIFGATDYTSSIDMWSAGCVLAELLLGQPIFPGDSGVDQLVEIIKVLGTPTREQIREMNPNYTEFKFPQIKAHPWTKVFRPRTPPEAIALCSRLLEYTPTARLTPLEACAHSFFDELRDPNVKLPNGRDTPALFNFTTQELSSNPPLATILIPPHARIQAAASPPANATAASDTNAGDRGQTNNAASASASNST
T1 sequence (P49841 whole entry): as the sequence (P18266 whole entry) above, with M240V, P390T, A392T, T400A, A402T counted along it
T3 sequence (P18266 whole entry): as the sequence (P18266 whole entry) above

Ser-9 phosphorylation of GSK3-β (ratio GSK3-β-pS9 / total GSK3-β) (GSK3-β [1]): significantly increased
phosphorylation of GSK3 (Ser-9) in brain (GSK3 [3]): did not observe significant changes
phosphorylation of GSK3 at Ser-9 in brain (pS9-GSK3 / GSK3-β) (GSK3 [6]): no changes
Ser-9 phosphorylation of GSK3-β in brain (pS9-GSK3 / GSK3-β) (GSK3-β [8]): increased
Compound: O.O.[Na+].[Na+].[O]=[W](=[O])([O-])[O-] [sodium tungstate, Sodium tungstate dihydrate]
phosphorylation of the tau epitope recognized by AT-180 (threonine 231; ratio AT180 / 7.51) (tau [2]; 1 mM sodium tungstate, 10 minutes, FIG. 1C): decrease
immunoreactivity with the tau-1 antibody (tau unphosphorylated at serines 198, 199 or 202; ratio tau1 / 7.51) (tau [2]; increasing concentrations of tungstate, FIG. 1B): significant increase
phosphorylation of tau (AT180, tau-1) in brain (tau [4]): did not observe significant changes
amount of tau protein recognized by the tau-1 antibody in brain (tau [5]; listed as Tungstate): increased
phosphorylation of tau at the epitope recognized by the AT180 antibody in brain (tau [5]; listed as Tungstate): decreased
amount of tau protein recognized by the tau-1 antibody in brain (tau [5]; listed as tungstate): increase
phosphorylation of tau at the epitope recognized by the AT180 antibody in brain (tau [5]; listed as tungstate): decrease
tau phosphorylation at the site recognized by the tau-1 antibody in brain (tau-1 / 7.51) (tau [7]): no changes
tau phosphorylation at the site recognized by the tau-1 antibody in brain (tau-1 / 7.51) (tau [9]): decreased
solubility in water [10]: easily dissolved
